Consider 4 compounds from US20110046056A1, “APOA-1 PEPTIDE MIMETICS” (priority 2007, published 2011).

Each structure is given as a SMILES string. Read-outs that look alike come from different tables or passages of the source. *1 amine or outer side, *2 acyl side, *3 side chain or, on linkers, in order; H or OH if unused. Where a SMILES comes first, the peptide text is derived from it. [ ]: non-standard residue; d: D form. dNle(6-ylidene) = O=C([C@@H](CCCC=[*:3])N[*:1])[*:2]; Ala(5-hexenyl) = C=CCCCCC[C@H](N)C(=O)O; Gla = N[C@@H](CC(C(=O)O)C(=O)O)C(=O)O; X6 = CCCCCCC[C@H](N[*:1])C(=O)[*:2]

The assay addresses T1, ABCA1 cholesterol transporter protein (Mus musculus, UniProt P41233).
T1 construct: endogenous in cells
Briefly: ABCA1-dependent cholesterol efflux from RAW mouse macrophage cells (in vitro RCT assay). It counts as cell-based. The source says: Peptides of the present invention were designed based on amphipathic properties and their abilities to solubilize phospholipids and promote cholesterol efflux. The most direct functional measurement of efficacy for the ApoA-1 peptide mimetic is its capacity to improve the efflux of cholesterol from the cell. The RAW and J774 cell lines are reliable mouse macrophage cell lines frequently used in the art for this purpose. […] The RAW cell line is preferred and recited in the description below.
In the present assay, the RAW cells are plated at 1.5×10^5 cells/200 μl/well/48-well plate in DMEM complete medium (with 10% FBS from INVITROGEN and 1% penicillin-streptomycin-glutamine from GIBCO) and ^3H-cholesterol at 5 μCi/ml. After 24 hours incubation in a moist 37° C. atmosphere with 5% CO2, the spent medium is removed, the cells are washed once with serum-free DMEM (0.1% fatty acid free bovine serum albumin replaces the FBS), and fresh serum-free medium (200 μl) is added to each well. After overnight incubation in the serum-free medium to allow the cellular cholesterol pools to equilibrate, the spent medium is removed, and fresh serum-free medium is added with/without CPT-cAMP (150 μM final). Eight-point serial titrations of the peptide/s being tested are added at this time (duplicate titrations in plain medium without cAMP and duplicate titrations in medium containing cAMP).
After 24 hours incubation in the various conditions, the medium is harvested from each well and 50 μl aliquots are counted. The cells are then lysed by adding 500 μl of HEPES/Triton lysis buffer to each well. The lysis is facilitated by freezing and thawing once. After thawing, the lysates are mixed well and 50 μl aliquots are counted.
The percent efflux of each peptide in each medium condition (±cAMP) is calculated by dividing the total counts in the medium by the sum of the total counts in the medium and lysate. The percent efflux seen with plain medium is subtracted from the percent efflux seen with the cAMP-stimulated efflux to yield the reported ABCA1-stimulated values. EC50 values are determined using PRISM software (Table 2).

[1] abbreviates: read-out: EC50 in the cholesterol efflux assay (RCT in vitro assay).

T1 sequence (P41233 whole entry): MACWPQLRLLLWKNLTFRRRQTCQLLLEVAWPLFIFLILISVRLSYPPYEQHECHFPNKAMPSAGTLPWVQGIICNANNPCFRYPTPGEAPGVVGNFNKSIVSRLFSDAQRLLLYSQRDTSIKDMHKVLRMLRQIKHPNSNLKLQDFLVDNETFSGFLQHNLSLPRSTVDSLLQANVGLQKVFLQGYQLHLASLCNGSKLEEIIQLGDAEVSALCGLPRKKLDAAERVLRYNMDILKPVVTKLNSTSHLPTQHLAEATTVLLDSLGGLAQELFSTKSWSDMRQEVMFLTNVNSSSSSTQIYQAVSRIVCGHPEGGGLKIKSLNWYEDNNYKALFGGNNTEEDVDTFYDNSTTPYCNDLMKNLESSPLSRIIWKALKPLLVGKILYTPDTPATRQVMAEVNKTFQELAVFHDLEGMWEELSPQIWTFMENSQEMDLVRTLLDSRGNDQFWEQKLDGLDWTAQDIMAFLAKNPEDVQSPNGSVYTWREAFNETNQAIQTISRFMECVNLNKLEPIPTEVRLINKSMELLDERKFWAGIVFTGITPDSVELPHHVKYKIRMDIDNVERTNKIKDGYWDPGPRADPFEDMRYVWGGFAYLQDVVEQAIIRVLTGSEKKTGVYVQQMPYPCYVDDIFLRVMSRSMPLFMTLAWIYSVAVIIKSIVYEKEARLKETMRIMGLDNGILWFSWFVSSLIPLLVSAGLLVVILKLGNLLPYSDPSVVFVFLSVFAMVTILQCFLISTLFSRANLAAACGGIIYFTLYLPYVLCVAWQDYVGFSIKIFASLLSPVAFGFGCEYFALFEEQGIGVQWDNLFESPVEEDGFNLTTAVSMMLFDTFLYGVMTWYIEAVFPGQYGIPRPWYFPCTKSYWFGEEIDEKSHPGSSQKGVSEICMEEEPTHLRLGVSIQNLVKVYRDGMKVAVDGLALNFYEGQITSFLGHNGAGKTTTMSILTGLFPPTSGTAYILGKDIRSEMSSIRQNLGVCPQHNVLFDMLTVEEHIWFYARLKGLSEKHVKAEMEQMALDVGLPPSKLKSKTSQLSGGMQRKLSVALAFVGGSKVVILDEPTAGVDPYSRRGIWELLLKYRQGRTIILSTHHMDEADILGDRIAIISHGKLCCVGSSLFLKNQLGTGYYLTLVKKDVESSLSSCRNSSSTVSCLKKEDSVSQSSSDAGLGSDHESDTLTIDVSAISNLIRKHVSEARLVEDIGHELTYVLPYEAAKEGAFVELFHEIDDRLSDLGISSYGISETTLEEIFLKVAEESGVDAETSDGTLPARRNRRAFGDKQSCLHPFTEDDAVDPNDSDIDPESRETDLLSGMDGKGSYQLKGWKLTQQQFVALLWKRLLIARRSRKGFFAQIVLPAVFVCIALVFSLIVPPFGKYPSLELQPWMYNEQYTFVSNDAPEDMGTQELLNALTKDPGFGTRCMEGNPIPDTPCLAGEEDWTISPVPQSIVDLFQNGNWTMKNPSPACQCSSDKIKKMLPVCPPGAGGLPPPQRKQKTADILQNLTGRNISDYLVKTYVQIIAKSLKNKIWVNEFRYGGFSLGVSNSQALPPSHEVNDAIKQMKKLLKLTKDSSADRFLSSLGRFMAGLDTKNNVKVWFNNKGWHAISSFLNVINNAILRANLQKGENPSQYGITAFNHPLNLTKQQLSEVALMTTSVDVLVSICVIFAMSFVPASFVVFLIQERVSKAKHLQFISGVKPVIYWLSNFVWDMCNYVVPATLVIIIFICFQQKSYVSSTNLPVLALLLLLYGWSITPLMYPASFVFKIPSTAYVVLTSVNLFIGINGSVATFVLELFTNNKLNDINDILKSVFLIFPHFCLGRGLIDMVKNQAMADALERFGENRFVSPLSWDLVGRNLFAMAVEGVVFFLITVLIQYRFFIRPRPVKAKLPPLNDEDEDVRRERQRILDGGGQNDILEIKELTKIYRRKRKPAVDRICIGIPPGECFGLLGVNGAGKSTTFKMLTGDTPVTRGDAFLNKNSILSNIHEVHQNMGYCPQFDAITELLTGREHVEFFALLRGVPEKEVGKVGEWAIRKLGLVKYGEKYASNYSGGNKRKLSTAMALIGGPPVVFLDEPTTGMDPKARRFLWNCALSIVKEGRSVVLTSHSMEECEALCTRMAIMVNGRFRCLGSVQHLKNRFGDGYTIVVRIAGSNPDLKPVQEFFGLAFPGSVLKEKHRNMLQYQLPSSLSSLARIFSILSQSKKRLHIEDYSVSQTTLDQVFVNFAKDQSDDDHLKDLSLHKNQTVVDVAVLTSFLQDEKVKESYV

`C=CCCCCC[C@H](NC(=O)[C@H](CCC(N)=O)NC(=O)[C@H](CCCCN)NC(=O)[C@H](CC(C)C)NC(=O)[C@H](C)NC(=O)[C@H](CCC(=O)O)NC(=O)[C@H](CC(C)C)NC(=O)[C@H](CCCCCC=C)NC(=O)[C@H](CCC(=O)O)NC(=O)[C@H](CC(N)=O)NC(=O)[C@H](CC(C)C)NC(=O)[C@H](CCCCN)NC(=O)[C@H](CCC(=O)O)NC(=O)[C@H](CCCN=C(N)N)NC(=O)[C@H](Cc1ccccc1)NC(=O)[C@H](CCC(=O)O)NC(=O)[C@H](CC(=O)O)NC(=O)[C@H](CC(C)C)NC(=O)[C@@H](NC(=O)[C@@H]1CCCN1C(C)=O)C(C)C)C(=O)N[C@@H](CC(C)C)C(=O)N[C@@H](CCCCN)C(N)=O` [SEQ ID NO 44, PVLDEFREKLNES7HLEALKQS7HLK] (Ac-PVLDEFREKLNE[Ala(5-hexenyl)]LEALKQ[Ala(5-hexenyl)]LK-NH2): the EC50 under setting [1] is 600 nM.

As to `C=CCCCCC[C@H](NC(=O)[C@H](CCC(=O)O)NC(=O)[C@H](CC(N)=O)NC(=O)[C@H](CC(C)C)NC(=O)[C@H](CCCCN)NC(=O)[C@H](CCC(=O)O)NC(=O)[C@H](CCCNC(=N)N)NC(=O)[C@H](Cc1ccccc1)NC(=O)[C@H](CCC(=O)O)NC(=O)[C@H](CC(=O)O)NC(=O)[C@H](CC(C)C)NC(=O)[C@@H](NC(=O)[C@@H]1CCCN1C(C)=O)C(C)C)C(=O)N[C@@H](CC(C)C)C(=O)N[C@@H](CC(C(=O)O)C(=O)O)C(=O)N[C@@H](C)C(=O)N[C@@H](CC(C)C)C(=O)N[C@@H](CCCCN)C(=O)N[C@@H](CCC(N)=O)C(=O)N[C@@H](CCCCN)C(=O)N[C@@H](CC(C)C)C(=O)N[C@@H](CCCCN)C(N)=O` [SEQ ID NO 47, PVLDEFREKLNES7HL-GLA-ALKQKLK] (Ac-PVLDEFREKLNE[Ala(5-hexenyl)]L[Gla]ALKQKLK-NH2; C-terminus assumed), the EC50 under setting [1] was 700 nM. With `CCCCCCC[C@H](NC(=O)[C@H](CCC(=O)O)NC(=O)[C@H](CC(N)=O)NC(=O)[C@H](CC(C)C)NC(=O)[C@H](CCCCN)NC(=O)[C@H](CCC(=O)O)NC(=O)[C@H](CCCNC(=N)N)NC(=O)[C@H](CCCCCCC)NC(=O)[C@H](CCC(=O)O)NC(=O)[C@H](CC(=O)O)NC(=O)[C@H](CC(C)C)NC(=O)[C@@H](NC(=O)[C@@H]1CCCN1C(C)=O)C(C)C)C(=O)N[C@@H](CC(C)C)C(=O)N[C@@H](CCC(=O)O)C(=O)N[C@@H](C)C(=O)N[C@@H](CC(C)C)C(=O)N[C@@H](CCCCN)C(=O)N[C@@H](CCC(N)=O)C(=O)N[C@@H](CCCCN)C(=O)N[C@@H](CC(C)C)C(=O)N[C@@H](CCCCN)C(N)=O` [SEQ ID NO 50, PVLDES7H3REKLNES7H3LEALKQKLK] (Ac-PVLDE[X6]REKLNE[X6]LEALKQKLK-NH2; C-terminus assumed), the EC50 under setting [1] amounted to 300 nM.

Regarding `C=CCCC[C@@H](NC(=O)[C@H](CCC(=O)O)NC(=O)[C@H](CC(N)=O)NC(=O)[C@H](CC(C)C)NC(=O)[C@@H](CCCC=C)NC(=O)[C@H](CCC(=O)O)NC(=O)[C@H](CCCNC(=N)N)NC(=O)[C@H](Cc1ccccc1)NC(=O)[C@H](CCC(=O)O)NC(=O)[C@H](CC(=O)O)NC(=O)[C@H](CC(C)C)NC(=O)[C@@H](NC(=O)[C@@H]1CCCN1C(C)=O)C(C)C)C(=O)N[C@@H](CC(C)C)C(=O)N[C@@H](CCC(=O)O)C(=O)N[C@@H](C)C(=O)N[C@@H](CC(C)C)C(=O)N[C@@H](CCCCN)C(=O)N[C@@H](CCC(N)=O)C(=O)N[C@@H](CCCCN)C(=O)N[C@@H](CC(C)C)C(=O)N[C@@H](CCCCN)C(N)=O` [compound 9] (Ac-PVLDEFRE[dNle(6-ylidene)]LNE[dNle(6-ylidene)]LEALKQKLK-NH2; C-terminus assumed), the EC50 (read-out: ABCA1-DEPENDENT CHOLESTEROL EFFLUX EC50) turned out to be 46000 nM.
